Data set [1] can be described thus: Bioaccumulation, Log Pow according to OCDE 117 by HPLC. The format is physicochemical. On the procedure: (§1) According to OCDE test 306 (marine medium), the composition of the invention (B1), comprising a compound of formula (I), has a biodegradability of 70%, i.e. greater than 60%. […] Its Log Pow measured according to OCDE 117 by HPLC is 2.93<3. Its Algal ecotoxicity is 2 mg·L^−1.

Data set [2] is described as follows: Biodegradability in marine medium, OCDE test 306. The conditions noted are these: in words. Here is the method: as §1

Take “dicocoyldimethylammonium chloride [Noramium® M2C]”: in data set [1], the “Bioaccumulation, in words” value was “bioaccumulable”. The Biodegradability classification result in data set [2] is on record as “not biodegradable”.
As for “di-tallow-hydrogenodimethylammonium chloride [Noramium® M2SH]”, in data set [1], the “Bioaccumulation, in words” value is on record as “bioaccumulable”. The Biodegradability classification result in data set [2] was “not biodegradable”.

(Values after US10774281B2, “Use of a particular carboxylic amino acid in order to limit the formation and/or agglomeration of gas hydrates” (Arkema France, priority 2015, dated 2020).)
